# Target: T1, human CH24H (Homo sapiens, UniProt Q9Y6A2)
# T1 construct: Using Full-Length Mammalian Gene Collection No. 4819975 (Invitrogen) as a template; made in house; host or cells: FreeStyle 293-F cells, transient transfection with pcDNA3.1(+)/hCH24H; lysate supernatant, not purified
# Assay: Measurement of CH24H inhibitory activity (24-HC produced from [14C] cholesterol by human CH24H lysate)
# Type: biochemical
# Conditions: 1 μM test compound, [14C] cholesterol 15 μM, 37° C. for 5 hr, read-out: Inhibitory Rate in 1 μM (%)
# Description: The expression of human CH24H was performed using FreeStyle 293 Expression System (Invitrogen). […] After transfection, the cells were cultured at 37° C., 8% CO2 with shaking at 125 rpm for 2 days. The cells were collected by centrifugation, and suspended in a suspension buffer (100 mM potassium phosphate (pH 7.4), 0.1 mM EDTA, 1 mM DTT, 20% Glycerol). The suspended product was disrupted by a polytron homogenizer (manufactured by Kinematica), and centrifuged at 9000×g for 10 min, and the supernatant was collected. The collected supernatant was cryopreserved (−80° C.) as a human CH24H lysate standard product.
# For the measurement of CH24H inhibitory activity, using the human CH24H lysate prepared in Experimental Example 2, the amount of 24-HC produced from cholesterol by catalytic activity of CH24H was measured in the presence of a test compound, and compared with that measured in the absence of the test compound. That is, a test compound solution at various concentrations was mixed with a reaction buffer (50 mM potassium phosphate containing 0.1% BSA and Complete, EDTA-free, pH 7.4) and human CH24H lysate. Then, [^14C] cholesterol (53 mCi/mmol specific activity, 15 μM) was added, and CH24H reaction was performed at 37° C. for 5 hr. After completion of the reaction, a quenching solution consisting of chloroform/methanol/distilled water (2:2:1 v/v) was added, and the resulting 24-HC was extracted by shaking. The extract was applied to silica gel thin layer chromatography (ethyl acetate:toluene=4:6), and the obtained ^14C-24HC fraction was measured with BAS2500 (Fujifilm Corporation).
# The inhibitory rate (%) was calculated from the ratio of radioactivity in the presence of a test compound relative to the radioactivity in the absence of the test compound.
# T1 sequence (Q9Y6A2 whole entry): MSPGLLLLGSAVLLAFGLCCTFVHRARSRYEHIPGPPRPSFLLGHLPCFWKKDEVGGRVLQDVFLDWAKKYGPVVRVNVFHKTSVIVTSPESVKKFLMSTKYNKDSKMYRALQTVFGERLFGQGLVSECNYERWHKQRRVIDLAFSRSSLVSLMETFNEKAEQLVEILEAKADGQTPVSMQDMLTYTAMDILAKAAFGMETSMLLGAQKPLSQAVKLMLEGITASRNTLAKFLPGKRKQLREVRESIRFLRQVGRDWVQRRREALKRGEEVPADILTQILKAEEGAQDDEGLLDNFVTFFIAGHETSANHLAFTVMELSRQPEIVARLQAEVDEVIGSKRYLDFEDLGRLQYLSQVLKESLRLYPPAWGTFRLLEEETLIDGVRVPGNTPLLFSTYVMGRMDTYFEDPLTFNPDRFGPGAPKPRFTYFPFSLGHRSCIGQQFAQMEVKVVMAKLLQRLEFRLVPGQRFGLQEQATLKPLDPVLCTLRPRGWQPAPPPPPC
row,SMILES,inhibition at 1 µM
1,"Cc1cnc(-c2ccncc2N2CCC(C(=O)N(C)C)CC2)o1 [Example 2, N,N-dimethyl-1-(4-(5-methyl-1,3-oxazol-2-yl)pyridin-3-yl)piperidine-4-carboxamide]",80%
2,"CNC(=O)C1CCN(c2cnccc2-n2cc(C(F)(F)F)cn2)CC1 [Example 12, N-methyl-1-(4-(4-(trifluoromethyl)-1H-pyrazol-1-yl)pyridin-3-yl)piperidine-4-carboxamide]",90%
3,"Cc1cnn(-c2ccncc2N2[C@@H]3CC[C@H]2C[C@H](C(=O)N(C)C)C3)c1 [Example 13, (3-exo)-N,N-dimethyl-8-(4-(4-methyl-1H-pyrazol-1-yl)pyridin-3-yl)-8-azabicyclo[3.2.1]octane-3-carboxamide]",89%
4,"CN(C)C(=O)C1CCN(c2cnccc2-c2nc3ccccc3s2)CC1 [Example 21, 1-(4-(1,3-benzothiazol-2-yl)pyridin-3-yl)-N,N-dimethylpiperidine-4-carboxamide]",85%
5,"O=C(NC1CCOCC1)C1CCN(c2cnccc2-n2cc(Cl)cn2)CC1 [Example 24, 1-(4-(4-chloro-1H-pyrazol-1-yl)pyridin-3-yl)-N-(tetrahydro-2H-pyran-4-yl)piperidine-4-carboxamide]",96%
6,"CC1CCCN1C(=O)C1CCN(c2cnccc2-n2cc(Cl)cn2)CC1 (stereo not drawn) [Example 25, (1-(4-(4-chloro-1H-pyrazol-1-yl)pyridin-3-yl)piperidin-4-yl)(2-methylpyrrolidin-1-yl)methanone]",97%
7,"CC1(C)CCCN1C(=O)C1CCN(c2cnccc2-n2cc(Cl)cn2)CC1 [Example 26, (1-(4-(4-chloro-1H-pyrazol-1-yl)pyridin-3-yl)piperidin-4-yl)(2,2-dimethylpyrrolidin-1-yl)methanone]",98%
8,"CC(C)C1CCCN1C(=O)C1CCN(c2cnccc2-n2cc(Cl)cn2)CC1 (stereo not drawn) [Example 29, (1-(4-(4-chloro-1H-pyrazol-1-yl)pyridin-3-yl)piperidin-4-yl)(2-isopropylpyrrolidin-1-yl)methanone]",97%
9,"O=C(C1CCN(c2cnccc2-n2cc(Cl)cn2)CC1)N1CCS(=O)(=O)CC1 [Example 30, (1-(4-(4-chloro-1H-pyrazol-1-yl)pyridin-3-yl)piperidin-4-yl)(1,1-dioxidothiomorpholin-4-yl)methanone]",97%
10,"CC1(CNC(=O)C2CCN(c3cnccc3-n3cc(Cl)cn3)CC2)COC1 [Example 31, 1-(4-(4-chloro-1H-pyrazol-1-yl)pyridin-3-yl)-N-((3-methyloxetan-3-yl)methyl)piperidine-4-carboxamide]",97%
11,"O=C(C1CCN(c2cnccc2-n2cc(Cl)cn2)CC1)N1C2COCC1C2 [Example 35, (1-(4-(4-chloro-1H-pyrazol-1-yl)pyridin-3-yl)piperidin-4-yl)(3-oxa-6-azabicyclo[3.1.1]hept-6-yl)methanone]",98%
12,"O=C(NC1CCCC1)C1CCN(c2cnccc2-n2cc(Cl)cn2)CC1(F)F (stereo not drawn) [Example 38, 1-(4-(4-chloro-1H-pyrazol-1-yl)pyridin-3-yl)-N-cyclopentyl-3,3-difluoropiperidine-4-carboxamide]",98%
13,"CN(C(=O)C1CCN(c2cnccc2-n2cc(Cl)cn2)CC1)C1CCOCC1 [Example 54, 1-(4-(4-chloro-1H-pyrazol-1-yl)pyridin-3-yl)-N-methyl-N-(tetrahydro-2H-pyran-4-yl)piperidine-4-carboxamide]",99%
14,"CN(C(=O)C1CCN(c2cnccc2-n2cc(Cl)cn2)CC1)C1CC1 [Example 58, 1-(4-(4-chloro-1H-pyrazol-1-yl)pyridin-3-yl)-N-cyclopropyl-N-methylpiperidine-4-carboxamide]",96%
15,"Cc1cnn(-c2ccncc2N2CCC(C(=O)Nc3ccccc3)CC2)c1 [Example 73, 1-(4-(4-methyl-1H-pyrazol-1-yl)pyridin-3-yl)-N-phenylpiperidine-4-carboxamide]",97%
